Reference: patent US20070281922A1, “1-Sulfonylindazolylamine and - amide derivatives as 5-hydroxytryptamine-6 ligands” (Wyeth, priority 2006, published 2007)
Counter-ions that a name gives are not always drawn.

target: T1, human cloned 5-HT6 receptors (Homo sapiens, UniProt P50406); test: 5-HT6 binding affinity, [3H]-LSD displacement on membranes of Hela cells expressing human cloned 5-HT6 receptors; conditions: [3H]-LSD 3.0 nM, Hela cell membranes, 120 minutes at room temperature
T1 construct: expressed in transfected cells; host or cells: HeLa cells
Description: The affinity of test compounds for the serotonin 5-HT6 receptor was evaluated in the following manner. Cultured Hela cells expressing human cloned 5-HT6 receptors were harvested and centrifuged at low speed (1,000×g) for 10.0 minutes to remove the culture media. The harvested cells were suspended in half volume of fresh physiological phosphate buffered saline solution and recentrifuged at the same speed. This operation was repeated. The collected cells were then homogenized in ten volumes of 50 mM Tris.HCl (pH 7.4) and 0.5 mM EDTA. The homogenate was centrifuged at 40,000×g for 30.0 min and the precipitate was collected. The obtained pellet was resuspended in 10 volumes of Tris.HCl buffer and recentrifuged at the same speed. The final pellet was suspended in a small volume of Tris.HCl buffer and the tissue protein content was determined in aliquots of 10-25 μl volumes. Bovine Serum Albumin was used as the standard in the protein determination according to the method described in Lowry et al., J. Biol. Chem., 193: 265 (1951).
The volume of the suspended cell membranes was adjusted to give a tissue protein concentration of 1.0 mg/ml of suspension. The prepared membrane suspension (10 times concentrated) was aliquoted in 1.0 ml volumes and stored at −70° C. until used in subsequent binding experiments.
Binding experiments were performed in a 96 well microtiter plate format, in a total volume of 200 μl. […] The test compounds were added in 20.0 μl volume.
The reaction was allowed to proceed in the dark for 120 minutes at room temperature, at which time, the bound ligand-receptor complex was filtered off on a 96 well unifilter with a Packard Filtermate® 196 Harvester. The bound complex caught on the filter disk was allowed to air dry and the radioactivity is measured in a Packard TopCount® equipped with six photomultiplier detectors, after the addition of 40.0 μl Microscint®-20 scintillant to each shallow well. The unifilter plate was heat-sealed and counted in a PackardTopCount® with a tritium efficiency of 31.0%.
Binding in the presence of varying concentrations of test compound was expressed as a percentage of specific binding in the absence of test compound. The results were plotted as log % bound versus log concentration of test compound. […] A linear regression line of data points was plotted, from which the IC50 value is determined and the Ki value is determined based upon the following equation: […]
where L was the concentration of the radioactive ligand used and KD is the dissociation constant of the ligand for the receptor, both expressed in nM.

T1 sequence (P50406 whole entry): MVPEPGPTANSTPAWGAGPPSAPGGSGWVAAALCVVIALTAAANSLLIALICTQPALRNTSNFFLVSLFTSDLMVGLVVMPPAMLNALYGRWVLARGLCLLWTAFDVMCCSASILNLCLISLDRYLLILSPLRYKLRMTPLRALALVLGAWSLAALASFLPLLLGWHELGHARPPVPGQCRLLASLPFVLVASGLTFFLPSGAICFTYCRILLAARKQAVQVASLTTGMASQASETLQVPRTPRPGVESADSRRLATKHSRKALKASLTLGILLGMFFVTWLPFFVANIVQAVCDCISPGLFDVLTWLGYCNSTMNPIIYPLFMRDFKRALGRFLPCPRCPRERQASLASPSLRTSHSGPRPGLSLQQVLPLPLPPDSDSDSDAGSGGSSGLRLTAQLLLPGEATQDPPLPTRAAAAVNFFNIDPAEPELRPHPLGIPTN

Structure (SMILES)	Ki
O=C(CCN1CCCCC1)Nc1ccc2cnn(S(=O)(=O)c3cccc4ccccc34)c2c1 [Example 12]	15 nM
CNCCC(=O)Nc1ccc2cnn(S(=O)(=O)c3cccc4ccccc34)c2c1 [Example 7]	1.2 nM
NCCC(=O)Nc1cccc2c1cnn2S(=O)(=O)c1cccc2ccccc12 [Example 5]	7.9 nM
NCCC(=O)Nc1ccc2c(cnn2S(=O)(=O)c2cccc3ccccc23)c1 [Example 6]	49.5 nM
O=C(Nc1ccc2cnn(S(=O)(=O)c3cccc4ccccc34)c2c1)C1CCNCC1 [Example 8]	2.3 nM
O=S(=O)(c1cccc2ccccc12)n1ncc2ccc(NCC3CCNCC3)cc21 [Example 14, [1-(Naphthalene-1-sulfonyl)-1H-indazol-6-yl]-piperidin-4-ylmethyl-amine dihydrochloride]	18.4 nM
CN(C)CCC(=O)Nc1ccc2cnn(S(=O)(=O)c3cccc4ccccc34)c2c1 [Example 10]	1.8 nM
NCCC(=O)Nc1ccc2cnn(S(=O)(=O)c3cccc4ccccc34)c2c1 [Example 4, N^1-[1-(1-naphthylsulfonyl-1-H-indazol-6-yl]beta-alaninamide Hydrochloride]	0.5 nM
O=C(Nc1ccc2cnn(S(=O)(=O)c3cccc4ccccc34)c2c1)C1CCCNC1 (stereo not shown) [Example 9]	3.4 nM
CCN(CC)CCC(=O)Nc1ccc2cnn(S(=O)(=O)c3cccc4ccccc34)c2c1 [Example 11]	2.1 nM
